Reference: patent US20260070945A1, “MACROCYCLIC IMMUNOMODULATORS” (Bristol-Myers Squibb Company, priority 2022, published 2026)
pIC50: −log10 of the molar value. *1 amine or outer side, *2 acyl side, *3 side chain or, on linkers, in order; H or OH if unused. Where a SMILES comes first, the peptide text is derived from it. Bridges are numbered along the chain shown (N, C = ends). [ ]: non-standard residue; d: D form. The star is where a group is joined. ξ: configuration not given here. Phe(3-CF3) = N[C@@H](Cc1cccc(C(F)(F)F)c1)C(=O)O; Ala(morpholin-4-yl) = N[C@@H](CN1CCOCC1)C(=O)O; Phe(4-COOH) = N[C@@H](Cc1ccc(C(=O)O)cc1)C(=O)O; Bip = N[C@@H](Cc1ccc(-c2ccccc2)cc1)C(=O)O; Phe(4-CN) = N#Cc1ccc(C[C@H](N)C(=O)O)cc1; NH(CH2)14COOH = O=C(O)CCCCCCCCCCCCCCN*; Phe(3-F) = N[C@@H](Cc1cccc(F)c1)C(=O)O; Phe(3-Me) = Cc1cccc(C[C@H](N)C(=O)O)c1; γGlu = O=C(O)[C@H](CCC(=O)[*:2])N[*:1]; NH(CH2)12COOH = O=C(O)CCCCCCCCCCCCN*; Val(3-OH) = CC(C)(O)[C@H](N)C(=O)O; 4Pal = N[C@@H](Cc1ccncc1)C(=O)O; Cha = N[C@@H](CC1CCCCC1)C(=O)O; Cit = NC(=O)NCCC[C@H](N)C(=O)O; Ile(3ξ) = CCC(C)[C@H](N)C(=O)O; Thr(3ξ) = CC(O)[C@H](N)C(=O)O; Carboxymethyl = O=C(O)C*; NMeA = CN[C@@H](C)C(=O)O; Orn = NCCC[C@H](N)C(=O)O; Aun = NCCCCCCCCCCC(=O)O; Dab = NCC[C@H](N)C(=O)O; Dap = NC[C@H](N)C(=O)O; AEEA = NCCOCCOCC(=O)O

Molecular target: T1, PD-1/PD-L1 interaction (PE-labeled human PD-L1-Ig binding to Jurkat cell line over-expressing human PD-1) (Homo sapiens, UniProt Q15116)
T1 construct: expressed in transfected cells; host or cells: Jurkat
T1 sequence (Q15116 25-288): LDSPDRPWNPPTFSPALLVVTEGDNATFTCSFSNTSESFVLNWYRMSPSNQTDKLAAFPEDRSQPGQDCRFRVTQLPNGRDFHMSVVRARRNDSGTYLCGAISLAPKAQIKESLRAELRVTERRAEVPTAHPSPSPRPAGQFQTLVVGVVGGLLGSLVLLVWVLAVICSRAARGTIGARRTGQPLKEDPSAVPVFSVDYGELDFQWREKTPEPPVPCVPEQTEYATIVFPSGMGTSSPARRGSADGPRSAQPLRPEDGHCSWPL
Assay: Jurkat-PD-1 Cell Binding High-Content Screening Assay (CBA)
Conditions: Jurkat-hPD-1 cells, PE-labeled PD-L1-Ig 20 nM final; read-out: Jurkat HPD1 PDL1 IC50
Method in brief: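 Cells 8×10^3/well, DMEM + 10% FCS; cpd 2 h, 37 °C; PE–PD-L1-Ig 20 nM final, 1 h; PFA fix + Hoechst 33342, 3× dPBS wash; high-content imager.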

| Structure (SMILES) | pIC50 |
| --- | --- |
| Cc1cccc(C[C@@H]2NC(=O)[C@H](CC(=O)O)NC(=O)[C@H](Cc3ccc(OCC(=O)O)cc3)NC(=O)[C@H](CCN)NC(=O)CSC[C@@H](C(=O)N[C@@H](CCN)C(=O)NCCCCCCCCCCC(=O)O)NC(=O)[C@H](CO)NC(=O)[C@H](C(C)(C)O)NC(=O)[C@H](CC3CCCCC3)NC(=O)[C@H](CCN)NC(=O)[C@@H](CC(C)C)NC(=O)[C@H](C)N(C)C(=O)[C@H](Cc3ccc(OCC(=O)O)cc3)NC(=O)[C@H](Cc3ccc(-c4ccccc4)cc3)NC(=O)[C@H](Cc3cccc(F)c3)NC2=O)c1 [Example 1310] ({CH2CO}-[Dab]Y(Carboxymethyl)D[Phe(3-Me)][Phe(3-F)][Bip]Y(Carboxymethyl)[NMeA][dL][Dab][Cha][Val(3-OH)]SC[Dab][Aun]-OH; thioether N-14) | 7.51 |
| Cc1cccc(C[C@@H]2NC(=O)[C@H](CC(=O)O)NC(=O)[C@H](Cc3ccc(OCC(=O)O)cc3)NC(=O)[C@H](C(C)O)NC(=O)CSC[C@@H](C(=O)N[C@@H](CCN)C(=O)NCCOCCOCC(=O)NCCCCCCCCCCC(=O)O)NC(=O)[C@H](CC(N)=O)NC(=O)[C@H](C(C)(C)O)NC(=O)[C@H](CC3CCCCC3)NC(=O)[C@H](CCN)NC(=O)[C@@H](CC(C)C)NC(=O)[C@H](C)N(C)C(=O)[C@H](Cc3ccc(OCC(=O)O)cc3)NC(=O)[C@H](Cc3ccc(-c4ccccc4)cc3)NC(=O)[C@H](Cc3ccc(C(=O)O)cc3)NC2=O)c1 (stereo partly drawn) [Example 2474] ({CH2CO}-[Thr(3ξ)]Y(Carboxymethyl)D[Phe(3-Me)][Phe(4-COOH)][Bip]Y(Carboxymethyl)[NMeA][dL][Dab][Cha][Val(3-OH)]NC[Dab][AEEA][Aun]-OH; thioether N-14) | 7.60 |
| Cc1cccc(C[C@@H]2NC(=O)[C@H](CC(=O)O)NC(=O)[C@H](Cc3ccc(OCC(=O)O)cc3)NC(=O)[C@H](CN)NC(=O)CSC[C@@H](C(=O)N[C@@H](CCN)C(=O)NCCCCCCCCCCC(=O)O)NC(=O)[C@H](CO)NC(=O)[C@H](C(C)C)NC(=O)[C@H](CC3CCCCC3)NC(=O)[C@H](CCN)NC(=O)[C@@H](CC(C)C)NC(=O)[C@H](C)N(C)C(=O)[C@H](Cc3ccc(OCC(=O)O)cc3)NC(=O)[C@H](Cc3ccc(-c4ccccc4)cc3)NC(=O)[C@H](C(C)C)NC2=O)c1 [Example 1261] ({CH2CO}-[Dap]Y(Carboxymethyl)D[Phe(3-Me)]V[Bip]Y(Carboxymethyl)[NMeA][dL][Dab][Cha]VSC[Dab][Aun]-OH; thioether N-14) | 7.78 |
| CC(C)C[C@@H]1NC(=O)[C@H](Cc2c[nH]c3ccccc23)NC(=O)[C@H](CC(=O)O)NC(=O)[C@H](Cc2ccncc2)NC(=O)[C@H](Cc2ccc(OCC(=O)O)cc2)NC(=O)CSC[C@@H](C(=O)N[C@@H](CN)C(=O)NCCOCCOCC(=O)NCCCCCCCCCCC(=O)O)NC(=O)[C@H](CO)NC(=O)[C@H](C(C)C)NC(=O)[C@H](CC2CCCCC2)NC(=O)[C@H](CCN)NC(=O)[C@@H](CC(C)C)NC(=O)[C@H](C)N(C)C(=O)[C@H](C(C)C)NC(=O)[C@H](Cc2ccc(-c3ccccc3)cc2)NC1=O [Example 1088] ({CH2CO}-Y(Carboxymethyl)[4Pal]DWL[Bip]V[NMeA][dL][Dab][Cha]VSC[Dap][AEEA][Aun]-OH; thioether N-14) | 8.15 |
| CC(C)C[C@H]1NC(=O)[C@H](C)N(C)C(=O)[C@H](CCCNC(N)=O)NC(=O)[C@H](Cc2ccc(-c3ccccc3)cc2)NC(=O)[C@H](Cc2ccc(C(=O)O)cc2)NC(=O)[C@H](Cc2cccc(C(F)(F)F)c2)NC(=O)[C@H](CC(=O)O)NC(=O)[C@H](Cc2ccc(OCC(=O)O)cc2)NC(=O)[C@H](CN2CCOCC2)NC(=O)CSC[C@@H](C(=O)N[C@@H](CCN)C(=O)NCCOCCOCC(=O)N[C@@H](CCC(=O)NCCOCCOCC(=O)NCCCCCCCCCCCCC(=O)O)C(=O)O)NC(=O)[C@H](CCC(=O)O)NC(=O)[C@H](C(C)C)NC(=O)[C@H](CC2CCCCC2)NC(=O)[C@H](CCN)NC1=O [Example 1176] ({CH2CO}-[Ala(morpholin-4-yl)]Y(Carboxymethyl)D[Phe(3-CF3)][Phe(4-COOH)][Bip][Cit][NMeA][dL][Dab][Cha]VEC[Dab][AEEA][γGlu][AEEA]-{NH(CH2)12COOH}; thioether N-14) | 7.81 |
| CCC(C)[C@@H]1NC(=O)[C@H](Cc2ccc(-c3ccccc3)cc2)NC(=O)[C@H](CC(C)C)NC(=O)[C@H](Cc2c[nH]c3ccccc23)NC(=O)[C@H](CC(=O)O)NC(=O)[C@H](Cc2ccc(OCC(=O)O)cc2)NC(=O)[C@H](Cc2ccncc2)NC(=O)CSC[C@@H](C(=O)N[C@H](CC(N)=O)C(=O)NCCOCCOCC(=O)NCCCCCCCCCCC(=O)O)NC(=O)[C@H](CO)NC(=O)[C@H](C(C)C)NC(=O)[C@H](CC(C)C)NC(=O)[C@H](CCN)NC(=O)[C@@H](CC(C)C)NC(=O)[C@H](C)N(C)C1=O (stereo partly drawn) [Example 2064] ({CH2CO}-[4Pal]Y(Carboxymethyl)DWL[Bip][Ile(3ξ)][NMeA][dL][Dab]LVSC[dN][AEEA][Aun]-OH; thioether N-14) | 7.68 |

More lines, now with the values ahead:

| pIC50 | Structure (SMILES) |
| --- | --- |
| 6.51 | CC(C)C[C@H]1NC(=O)[C@H](C)N(C)C(=O)[C@H](Cc2ccc(OCC(=O)O)cc2)NC(=O)[C@H](Cc2ccc(-c3ccccc3)cc2)NC(=O)[C@H](Cc2ccc(OCC(=O)O)cc2)NC(=O)[C@H](Cc2c[nH]c3ccccc23)NC(=O)[C@H](CC(=O)O)NC(=O)[C@H](Cc2ccc(OCC(=O)O)cc2)NC(=O)[C@H]([C@@H](C)O)NC(=O)CSC[C@@H](C(=O)N[C@@H](CCN)C(=O)NCCOCCOCC(=O)NCCCCCCCCCCC(=O)O)NC(=O)[C@H](CCCN)NC(=O)[C@H](C(C)C)NC(=O)[C@H](CC2CCCCC2)NC(=O)[C@H](CCC(=O)O)NC1=O [Example 1400] ({CH2CO}-TY(Carboxymethyl)DWY(Carboxymethyl)[Bip]Y(Carboxymethyl)[NMeA][dL]E[Cha]V[Orn]C[Dab][AEEA][Aun]-OH; thioether N-14) |
| 7.83 | Cc1cccc(C[C@@H]2NC(=O)[C@H](CC(=O)O)NC(=O)[C@H](Cc3ccc(OCC(=O)O)cc3)NC(=O)[C@H](Cc3ccc(C#N)cc3)NC(=O)CSC[C@@H](C(=O)N[C@@H](CCN)C(=O)NCCCCCCCCCCC(=O)O)NC(=O)[C@H](CO)NC(=O)[C@H](C(C)(C)O)NC(=O)[C@H](CC3CCCCC3)NC(=O)[C@H](CCN)NC(=O)[C@@H](CC(C)C)NC(=O)[C@H](C)N(C)C(=O)[C@H](Cc3ccc(OCC(=O)O)cc3)NC(=O)[C@H](Cc3ccc(-c4ccccc4)cc3)NC(=O)[C@H](Cc3ccc(OCC(=O)O)cc3)NC2=O)c1 [Example 1288] ({CH2CO}-[Phe(4-CN)]Y(Carboxymethyl)D[Phe(3-Me)]Y(Carboxymethyl)[Bip]Y(Carboxymethyl)[NMeA][dL][Dab][Cha][Val(3-OH)]SC[Dab][Aun]-OH; thioether N-14) |
| 7.81 | CCC(C)[C@@H]1NC(=O)[C@H](Cc2ccc(-c3ccccc3)cc2)NC(=O)[C@H](C(C)C)NC(=O)[C@H](Cc2c[nH]c3ccccc23)NC(=O)[C@H](CC(=O)O)NC(=O)[C@H](Cc2ccc(OCC(=O)O)cc2)NC(=O)[C@H](C(C)O)NC(=O)CSC[C@@H](C(=O)N[C@H](CC(N)=O)C(=O)NCCCCCCCCCCC(=O)O)NC(=O)[C@H](CO)NC(=O)[C@H](C(C)C)NC(=O)[C@H](CC2CCCCC2)NC(=O)[C@H](CCN)NC(=O)[C@@H](CC(C)C)NC(=O)[C@H](C)N(C)C1=O (stereo partly drawn) [Example 2209] ({CH2CO}-[Thr(3ξ)]Y(Carboxymethyl)DWV[Bip][Ile(3ξ)][NMeA][dL][Dab][Cha]VSC[dN][Aun]-OH; thioether N-14) |

Same assay, conditions: PE-labeled PD-L1-Ig 20 nM final, Jurkat-hPD-1 cells; read-out: Jurkat HPD1 PDL1 IC50

| pIC50 | Structure (SMILES) |
| --- | --- |
| 6.72 | CC(C)C[C@H]1NC(=O)[C@H](C)N(C)C(=O)[C@H](CCC(N)=O)NC(=O)[C@H](Cc2ccc(-c3ccccc3)cc2)NC(=O)[C@H](Cc2ccc(C(=O)O)cc2)NC(=O)[C@H](Cc2cccc(C(F)(F)F)c2)NC(=O)[C@H](CC(=O)O)NC(=O)[C@H](Cc2ccc(OCC(=O)O)cc2)NC(=O)[C@H](Cc2ccc(OCC(=O)O)cc2)NC(=O)CSC[C@@H](C(=O)N[C@@H](CCN)C(=O)NCCOCCOCC(=O)NCCOCCOCC(=O)NCCCCCCCCCCCCCCC(=O)O)NC(=O)[C@H](CO)NC(=O)[C@H](C(C)(C)O)NC(=O)[C@H](CC2CCCCC2)NC(=O)[C@H](CCN)NC1=O [Example 2614] ({CH2CO}-Y(Carboxymethyl)Y(Carboxymethyl)D[Phe(3-CF3)][Phe(4-COOH)][Bip]Q[NMeA][dL][Dab][Cha][Val(3-OH)]SC[Dab][AEEA][AEEA]-{NH(CH2)14COOH}; thioether N-14) |
| 7.51 | CC(C)C[C@H]1NC(=O)[C@H](C)N(C)C(=O)[C@H](CCC(N)=O)NC(=O)[C@H](Cc2ccc(-c3ccccc3)cc2)NC(=O)[C@H](Cc2ccc(OCC(=O)O)cc2)NC(=O)[C@H](Cc2cccc(C(F)(F)F)c2)NC(=O)[C@H](CC(=O)O)NC(=O)[C@H](Cc2ccc(OCC(=O)O)cc2)NC(=O)[C@H](C)NC(=O)CSC[C@@H](C(=O)N[C@@H](CCN)C(=O)NCCCCCCCCCCCCC(=O)O)NC(=O)[C@H](CCC(=O)O)NC(=O)[C@H](C(C)(C)O)NC(=O)[C@H](CC2CCCCC2)NC(=O)[C@H](CCN)NC1=O [Example 2629] ({CH2CO}-AY(Carboxymethyl)D[Phe(3-CF3)]Y(Carboxymethyl)[Bip]Q[NMeA][dL][Dab][Cha][Val(3-OH)]EC[Dab]-{NH(CH2)12COOH}; thioether N-14) |
| 6.98 | CCC(C)[C@@H]1NC(=O)[C@H](Cc2ccc(-c3ccccc3)cc2)NC(=O)[C@H](C(C)C)NC(=O)[C@H](Cc2c[nH]c3ccccc23)NC(=O)[C@H](CC(=O)O)NC(=O)[C@H](Cc2ccc(C(=O)O)cc2)NC(=O)[C@H](Cc2cnc[nH]2)NC(=O)CSC[C@@H](C(=O)N[C@@H](CCN)C(=O)NCCOCCOCC(=O)N[C@@H](CCC(=O)NCCOCCOCC(=O)NCCCCCCCCCCCCCCC(=O)O)C(=O)O)NC(=O)[C@H](CCC(=O)O)NC(=O)[C@H](C(C)(C)O)NC(=O)[C@H](CC2CCCCC2)NC(=O)[C@H](CCN)NC(=O)[C@@H](CC(C)C)NC(=O)[C@H](C)N(C)C1=O (stereo partly drawn) [Example 2635] ({CH2CO}-H[Phe(4-COOH)]DWV[Bip][Ile(3ξ)][NMeA][dL][Dab][Cha][Val(3-OH)]EC[Dab][AEEA][γGlu][AEEA]-{NH(CH2)14COOH}; thioether N-14) |
